# Reference: PubChem BioAssay (NCI)
#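 Dose response: 5 concentrations. Exposure: 48 h. Format: 96-well plates. Endpoint: linear interpolation; highest concentration if not reached. GI50 marks 50% less growth. The concentration for full growth arrest is given as TGI.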
# What was measured:
# Assay in all cases: NCI-60 cell line screen, 48 h
# CAKI-1 renal = tested on: CAKI-1 renal
# HL-60(TB) leukemia = tested on: HL-60(TB) leukemia
# KM12 colon = tested on: KM12 colon
# MOLT-4 leukemia = tested on: MOLT-4 leukemia
# OVCAR-4 ovarian = tested on: OVCAR-4 ovarian
# OVCAR-5 ovarian = tested on: OVCAR-5 ovarian
# PC-3 prostate = tested on: PC-3 prostate
# TK-10 renal = tested on: TK-10 renal
# UO-31 renal = tested on: UO-31 renal
# SR leukemia = tested on: SR leukemia
Structure (SMILES),GI50 (CAKI-1 renal),TGI (CAKI-1 renal),GI50 (HL-60(TB) leukemia),TGI (HL-60(TB) leukemia),GI50 (KM12 colon),TGI (KM12 colon),GI50 (MOLT-4 leukemia),TGI (MOLT-4 leukemia),GI50 (OVCAR-4 ovarian),TGI (OVCAR-4 ovarian),GI50 (OVCAR-5 ovarian),TGI (OVCAR-5 ovarian),GI50 (PC-3 prostate),TGI (PC-3 prostate),GI50 (TK-10 renal),TGI (TK-10 renal),GI50 (UO-31 renal),TGI (UO-31 renal),GI50 (SR leukemia),TGI (SR leukemia)
COc1ccc(C(c2ccc(OCCN(C)C)cc2)c2cc3ccccc3c3ccccc23)cc1 (stereo not given),1.6 µM,3.01 µM,1.89 µM,3.75 µM,1.8 µM,3.39 µM,1.58 µM,3.42 µM,1.78 µM,3.39 µM,1.56 µM,3.27 µM,1.76 µM,3.5 µM,1.64 µM,3.1 µM,1.49 µM,2.9 µM,,
COc1cccc(CSCC(=O)O)c1,,> 100 µM,,,,> 100 µM,,,,> 100 µM,,> 100 µM,,> 100 µM,,> 100 µM,,> 100 µM,,
CC1=CC(=O)C(C(C)C)=CC1=Nc1cc(Br)c(O)c(Br)c1,2.46 µM,8.02 µM,3.48 µM,8.5 µM,2.33 µM,7.01 µM,4.53 µM,23.4 µM,6.29 µM,19.5 µM,11.8 µM,30.3 µM,,,11.7 µM,31.4 µM,8.22 µM,33.1 µM,3.45 µM,15.8 µM
CCOC(=O)c1c(C)n(Cc2ccccc2)c2c1cc(O)c1[nH]c(Cc3ccccc3)nc12,7.77 µM,21.8 µM,,,4.36 µM,> 43.7 µM,,,10.9 µM,> 57.3 µM,> 22.7 µM,> 61 µM,7.88 µM,> 100 µM,1.5 µM,54.5 µM,> 32.9 µM,> 51.4 µM,3.23 µM,25.3 µM
COC(=O)/C(=N/Nc1cccc(Cl)c1)C(C(=O)C(=O)Nc1cccc(Cl)c1C)c1nc2ccccc2nc1C (stereo not given),,> 100 µM,,> 100 µM,,> 100 µM,,> 100 µM,,> 100 µM,,59.8 µM,,,,> 100 µM,,75.1 µM,,> 100 µM
CN(C)c1nnnn1-c1c(N)n(C)c(=O)n(C)c1=O,,> 100 µM,,> 100 µM,,> 100 µM,,> 100 µM,,> 100 µM,,> 100 µM,,,,> 100 µM,,> 100 µM,,
Cc1ccc(-c2c3c(nn2-c2ccc(S(N)(=O)=O)cc2)-c2ccccc2C3)cc1,17.7 µM,32.6 µM,,,15.5 µM,43.6 µM,10.8 µM,42.7 µM,15.4 µM,32.8 µM,26.1 µM,63.7 µM,16.1 µM,42.6 µM,19.2 µM,38.1 µM,6.52 µM,21.8 µM,15.2 µM,60.2 µM
Cc1noc2c1C(=O)CCC2,,> 100 µM,,> 100 µM,,,,> 100 µM,,> 100 µM,,> 100 µM,,,,> 100 µM,,> 100 µM,,> 100 µM
COC(=O)C(=CNC(N)=O)C(=O)OC,,> 100 µM,,,,> 100 µM,,> 100 µM,,,,> 100 µM,,> 100 µM,,> 100 µM,,> 100 µM,,> 100 µM
